Reference: US10344039B2, “Macrocyclic spirocarbamate derivatives as factor XIa inhibitors, pharmaceutically acceptable compositions and their use” (MERCK SHARP & DOHME CORP., priority 2015, dated 2019)
pKi: −log10 of the molar value.

Target: T1, purified human Factor XIa (Homo sapiens, UniProt P03951)
T1 construct: purified human Factor XIa; purchased Sekisui Diagnostics
Test: Factor XIa Assay
Assay type: biochemical
Conditions: purified human Factor XIa 40 pM; substrate Z-Gly-Pro-Arg-AFC 100 μM; 50 mM HEPES pH 7.4; read-out: Hu FXIa Ki
Description: The effectiveness of a compound of the present invention as an inhibitor of Coagulation Factor XIa can be determined using a relevant purified serine protease, and an appropriate synthetic substrate. The rate of hydrolysis of the chromogenic or fluorogenic substrate by the relevant serine protease was measured both in the absence and presence of compounds of the present invention. Assays were conducted at room temperature or at 37° C. […] A decrease in the rate of fluorescence change in the presence of inhibitor is indicative of enzyme inhibition. Such methods are known to one skilled in the art. The results of this assay are expressed as the inhibitory constant, Ki.
Factor XIa determinations were made in 50 mM HEPES buffer at pH 7.4 containing 150 mM NaCl, 5 mM CaCl2, and 0.1% PEG 8000 (polyethylene glycol; JT Baker or Fisher Scientific). Determinations were made using purified human Factor XIa at a final concentration of 40 pM (Sekisui Diagnostics) and he synthetic substrate, Z-Gly-Pro-Arg-AFC, TFA salt (Sigma #C0980) at a concentration of 100 μM.
Activity assays were performed by diluting a stock solution of substrate at least tenfold to a final concentration ≤0.1 Km into a solution containing enzyme or enzyme equilibrated with inhibitor. Times required to achieve equilibration between enzyme and inhibitor were determined in control experiments. Initial velocities of product formation in the absence (Vo) or presence of inhibitor (Vi) were measured. Assuming competitive inhibition, and that unity is negligible compared Km/[S], [I]/e, and [I]/e (where [S], [I], and e respectively represent the total concentrations, of substrate, inhibitor and enzyme), the equilibrium constant (Ki) for dissociation of the inhibitor from the enzyme can be obtained from the dependence of Vo/Vi on [I] shown in the following equation. Vo/Vi=1+[I]/Ki
The activities shown by this assay indicate that the compounds of the invention may be therapeutically useful for treating or preventing various cardiovascular and/or cerebrovascular thromboembolic conditions in patients suffering from unstable angina, acute coronary syndrome, refractory angina, myocardial infarction, transient ischemic attacks, atrial fibrillation, stroke such as thrombotic stroke or embolic stroke, venous thrombosis, coronary and cerebral arterial thrombosis, cerebral and pulmonary embolism, atherosclerosis, deep vein thrombosis, disseminated intravascular coagulation, and reocclusion or restenosis of recanalized vessels. The Ki values measured for each of the example compounds of the invention using this assay are reported in the tables above (as “Hu FXIa Ki (nM)”).

T1 sequence (P03951 388-625 limits assumed): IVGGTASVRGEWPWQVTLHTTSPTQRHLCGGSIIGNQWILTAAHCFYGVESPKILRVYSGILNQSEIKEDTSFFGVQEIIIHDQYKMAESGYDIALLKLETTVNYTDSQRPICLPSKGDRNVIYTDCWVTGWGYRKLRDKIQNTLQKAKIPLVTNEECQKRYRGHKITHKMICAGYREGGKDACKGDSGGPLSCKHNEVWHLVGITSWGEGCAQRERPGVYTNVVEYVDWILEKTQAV
T1 sequence (P03951 19-387 partner limits assumed): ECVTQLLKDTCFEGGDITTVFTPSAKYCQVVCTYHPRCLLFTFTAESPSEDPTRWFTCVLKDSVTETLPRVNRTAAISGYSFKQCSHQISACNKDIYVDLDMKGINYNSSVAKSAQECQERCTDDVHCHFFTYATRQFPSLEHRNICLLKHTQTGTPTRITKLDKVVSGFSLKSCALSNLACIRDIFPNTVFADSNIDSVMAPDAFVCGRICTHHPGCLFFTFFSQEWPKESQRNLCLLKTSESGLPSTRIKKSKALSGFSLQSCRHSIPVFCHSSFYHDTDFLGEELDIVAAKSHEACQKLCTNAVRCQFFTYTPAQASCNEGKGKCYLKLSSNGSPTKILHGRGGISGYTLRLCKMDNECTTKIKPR

**Q.** `COC(=O)Nc1ccc2c(c1)NC(=O)CCCCC[C@@H](C(=O)N1CCC[C@@]3(C1)OC(=O)Nc1ccc(Cl)c(F)c13)c1cc-2ccn1` [Example 19a, methyl ((R)-10-((R)-6-chloro-5-fluoro-2-oxo-1,2-dihydrospiro[benzo[d][1,3]oxazine-4,3′-piperidine]-1′-carbonyl)-4-oxo-3-aza-1(4,2)-pyridina-2(1,2)-benzenacyclodecaphane-2^4-yl)carbamate] was tested. Which pKi did it give?
**A.** Its pKi is 7.31.

**Q.** How did the pKi turn out when `O=C1CCCC[C@@H](C(=O)N2CCC[C@@]3(C2)OC(=O)Nc2ccc(Cl)cc23)c2nc(c[nH]2)-c2ccc(F)cc2N1` (single isomer, unassigned) [Example 2a] was run?
**A.** Its pKi is 6.57.

**Q.** How did the pKi turn out when “(R)-6-chloro-1′-((R,Z)-2^4-fluoro-4-oxo-11H-3-aza-1(4,2)-imidazola-2(1,2)-benzenacyclononaphane-9-carbonyl)spiro[benzo[d][1,3]oxazine-4,3′-pyrrolidin]-2(1H)-one [Example 5b]” was run?
**A.** Its pKi is 6.74.

**Q.** With `COC(=O)Nc1ccc2c(c1)NC(=O)CCCC[C@H](C(=O)N1CCC[C@@]3(C1)OC(=O)Nc1ccc(Cl)c(F)c13)c1cc(F)cc-2c1` [Example 30a, methyl ((S)-9-((R)-6-chloro-5-fluoro-2-oxo-1,2-dihydrospiro[benzo[d][1,3]oxazine-4,3′-piperidine]-1′-carbonyl)-1^5-fluoro-4-oxo-3-aza-1(1,3),2(1,2)-dibenzenacyclononaphane-2^4-yl)carbamate] as the molecule, how does the pKi read?
**A.** The pKi was under 5.06.

**Q.** `CCOC(=O)C1CCCCC(C(=O)N2CCC[C@@]3(C2)OC(=O)Nc2ccc(Cl)c(F)c23)c2nc(c[nH]2)-c2ccc(NC(=O)OC)cc2N1` (single isomer, unassigned) [Example 32a] was tested. Which pKi did it give?
**A.** Its pKi is 6.85.

**Q.** `COC(=O)Nc1ccc2c(c1)NC(=O)[C@H](C)CCC[C@H](C(=O)N1CCC[C@@]3(C1)OC(=O)Nc1ccc(Cl)c(F)c13)C1=NC=C2O1` [Example 14b, methyl ((5R,9S)-9-((R)-6-chloro-5-fluoro-2-oxo-1,2-dihydrospiro[benzo[d][1,3]oxazine-4,3′-piperidine]-1′-carbonyl)-5-methyl-4-oxo-3-aza-1(5,2)-oxazola-2(1,2)-benzenacyclononaphane-2^4-yl)carbamate] was tested. Which pKi did it give?
**A.** The pKi was 6.66.

**Q.** How did the pKi turn out when `COC(=O)Nc1ccc2c(c1)NC(C(=O)O)CCCCC(C(=O)N1CCC[C@@]3(C1)OC(=O)Nc1ccc(Cl)c(F)c13)c1nc-2c[nH]1` (stereo partly drawn) [Example 33, (Z)-9-((R)-6-chloro-5-fluoro-2-oxo-1,2-dihydrospiro[benzo[d][1,3]oxazine-4,3′-piperidine]-1′-carbonyl)-2^4-((methoxycarbonyl)amino)-1^1H-3-aza-1(4,2)-imidazola-2(1,2)-benzenacyclononaphane-4-carboxylic acid] was run?
**A.** The pKi was 6.87.

**Q.** How did the pKi turn out when `COC(=O)Nc1ccc2c(c1)NC(=O)CCCCC[C@H](C(=O)N1CCC[C@@]3(C1)OC(=O)Nc1ccc(Cl)cc13)c1cc-2ccn1` [Example 16a, methyl ((S)-10-((R)-6-chloro-2-oxo-1,2-dihydrospiro[benzo[d][1,3]oxazine-4,3′-piperidine]-1′-carbonyl)-4-oxo-3-aza-1(4,2)-pyridina-2(1,2)-benzenacyclodecaphane-2^4-yl)carbamate] was run?
**A.** The pKi was under 6.06.

**Q.** With `COC(=O)Nc1ccc2c(c1)NC(=O)C(C)CCCC(C(=O)N1CCC[C@@]3(C1)OC(=O)Nc1ccc(Cl)cc13)c1cc-2ccn1` (single isomer, unassigned) [Example 15b] as the molecule, how does the pKi read?
**A.** Its pKi is 6.13.

**Q.** How did the pKi turn out when `COC(=O)Nc1ccc2c(c1)NC(=O)CCCCC[C@H](C(=O)N1CC[C@@]3(C1)OC(=O)Nc1ccc(Cl)c(F)c13)c1cc-2ccn1` [Example 18b, methyl ((S)-10-((R)-6-chloro-5-fluoro-2-oxo-1,2-dihydrospiro[benzo[d][1,3]oxazine-4,3′-pyrrolidine]-1′-carbonyl)-4-oxo-3-aza-1(4,2)-pyridina-2(1,2)-benzenacyclodecaphane-2^4-yl)carbamate] was run?
**A.** Its pKi is 6.70.

**Q.** With `Nc1ccc2c(c1)NC(=O)CC/C=C\C[C@H](C(=O)N1CCC[C@@]3(C1)OC(=O)Nc1ccc(Cl)c(F)c13)c1cc-2ccn1` (single isomer, unassigned) [Example 20b] as the molecule, how does the pKi read?
**A.** The pKi was under 6.06.

**Q.** How did the pKi turn out when `Nc1ccc2c(c1)NC(=O)CC/C=C\C[C@@H](C(=O)N1CCC[C@@]3(C1)OC(=O)Nc1ccc(Cl)c(F)c13)c1cc-2ccn1` [Example 20a, (R)-1′-((R,Z)-2^4-amino-4-oxo-3-aza-1(4,2)-pyridina-2(1,2)-benzenacyclodecaphan-7-ene-10-carbonyl)-6-chloro-5-fluorospiro[benzo[d][1,3]oxazine-4,3′-piperidin]-2(1H)-one] was run?
**A.** The pKi was 6.68.

**Q.** With `COC(=O)Nc1ccc2c(c1)NC(=O)C(C)CCCC(C(=O)N1CCC[C@@]3(C1)OC(=O)Nc1ccc(Cl)cc13)c1cc-2ccn1` (single isomer, unassigned) [Example 15c] as the molecule, how does the pKi read?
**A.** Its pKi is 5.75.

**Q.** How did the pKi turn out when `CCOC(=O)C1CCCCC(C(=O)N2CCC[C@@]3(C2)OC(=O)Nc2ccc(Cl)c(F)c23)c2cc(ccn2)-c2cc(F)ccc2N1` (single isomer, unassigned) [Example 34b] was run?
**A.** The pKi was under 6.06.

**Q.** `O=C1Nc2ccc(Cl)c(F)c2[C@@]2(CCN(C(=O)C3CCCCC(C(=O)O)Nc4ccc(F)cc4-c4ccnc3c4)C2)O1` (single isomer, unassigned) [Example 37b] was tested. Which pKi did it give?
**A.** The pKi was under 6.06.

**Q.** How did the pKi turn out when `CCOC(=O)C1CCCCC(C(=O)N2CC[C@@]3(C2)OC(=O)Nc2ccc(Cl)c(F)c23)c2cc(ccn2)-c2cc(F)ccc2N1` (single isomer, unassigned) [Example 36a] was run?
**A.** The pKi was under 6.06.

**Q.** How did the pKi turn out when `O=C1CCCC[C@H](C(=O)N2CCC[C@@]3(C2)OC(=O)Nc2ccc(Cl)cc23)c2nc(c[nH]2)-c2ccc(F)cc2N1` (single isomer, unassigned) [Example 2b] was run?
**A.** Its pKi is under 5.30.

**Q.** How did the pKi turn out when `COC(=O)Nc1ccc2c(c1)NC(=O)CC/C=C\C[C@H](C(=O)N1CCC[C@@]3(C1)OC(=O)Nc1ccc(Cl)c(F)c13)c1cc-2ccn1` [Example 22b, methyl ((S,Z)-10-((R)-6-chloro-5-fluoro-2-oxo-1,2-dihydrospiro[benzo[d][1,3]oxazine-4,3′-piperidine]-1′-carbonyl)-4-oxo-3-aza-1(4,2)-pyridina-2(1,2)-benzenacyclodecaphanen-2^4-yl)carbamate] was run?
**A.** The pKi was under 6.06.

**Q.** How did the pKi turn out when `COC(=O)Nc1ccc2c(c1)NC(=O)CCCC[C@H](C(=O)N1CCC[C@@]3(C1)OC(=O)Nc1ccc(Cl)cc13)c1cc(F)cc-2c1` [Example 29b, methyl ((S)-9-((R)-6-chloro-2-oxo-1,2-dihydrospiro[benzo[d][1,3]oxazine-4,3′-piperidine]-1′-carbonyl)-1^5-fluoro-4-oxo-3-aza-1(1,3),2(1,2)-dibenzenacyclononaphane-2^4-yl)carbamate] was run?
**A.** Its pKi is under 5.06.

**Q.** `COC(=O)Nc1ccc2c(c1)NC(=O)C(C)CCCC(C(=O)N1CCC[C@@]3(C1)OC(=O)Nc1ccc(Cl)cc13)c1cc-2ccn1` (single isomer, unassigned) [Example 15d] was tested. Which pKi did it give?
**A.** Its pKi is under 5.30.

**Q.** How did the pKi turn out when `O=C1CCCC[C@H](C(=O)N2CC[C@@]3(C2)OC(=O)Nc2ccc(Cl)cc23)c2nc(c[nH]2)-c2ccc(F)cc2N1` [Example 5a, (R)-6-chloro-1′-((S,Z)-2^4-fluoro-4-oxo-1^1H-3-aza-1(4,2)-imidazola-2(1,2)-benzenacyclononaphane-9-carbonyl)spiro[benzo[d][1,3]oxazine-4,3′-pyrrolidin]-2(1H)-one] was run?
**A.** Its pKi is under 5.06.

**Q.** `COC(=O)Nc1ccc2c(c1)NC(=O)CCCC[C@H](C(=O)N1CCC[C@@]3(C1)OC(=O)Nc1ccc(Cl)cc13)c1nc-2c[nH]1` [Example 3b, methyl ((S,Z)-9-((R)-6-chloro-2-oxo-1,2-dihydrospiro[benzo[d][1,3]oxazine-4,3′-piperidine]-1′-carbonyl)-4-oxo-1^1H-3-aza-1(4,2)-imidazola-2(1,2)-benzenacyclononaphane-2^4-yl)carbamate] was tested. Which pKi did it give?
**A.** Its pKi is 7.19.

**Q.** `COC(=O)Nc1ccc2c(c1)NC(=O)CCCC[C@@H](C(=O)N1CCC[C@@]3(C1)OC(=O)Nc1ccc(Cl)cc13)c1cc(F)cc-2c1` [Example 29a, methyl ((R)-9-((R)-6-chloro-2-oxo-1,2-dihydrospiro[benzo[d][1,3]oxazine-4,3′-piperidine]-1′-carbonyl)-1^5-fluoro-4-oxo-3-aza-1(1,3),2(1,2)-dibenzenacyclononaphane-2^4-yl)carbamate] was tested. Which pKi did it give?
**A.** The pKi was 6.65.

**Q.** `O=C1Nc2ccc(Cl)c(F)c2[C@@]2(CCCN(C(=O)C3CCCCC(C(=O)O)Nc4ccc(F)cc4-c4ccnc3c4)C2)O1` (single isomer, unassigned) [Example 35b] was tested. Which pKi did it give?
**A.** The pKi was under 6.06.

**Q.** `CCOC(=O)C1CCCCC(C(=O)N2CCC[C@@]3(C2)OC(=O)Nc2ccc(Cl)c(F)c23)c2cc(ccn2)-c2cc(F)ccc2N1` (single isomer, unassigned) [Example 34a] was tested. Which pKi did it give?
**A.** Its pKi is 6.20.
